According to PubChem BioAssay AID256 (DTP/NCI, 2004):
Values joined by “and” are separate entries in the source; they are usually repeats but may differ in a detail not shown here. Equal values may be shown once. Inconclusive results and toxic doses are left out. Rule for the calls: active = survival T/C of 150% or more; inactive = T/C below 125% in these data.

Test system: CD2F1 mice, L1210 leukemia ip, survival T/C
Test: NCI In Vivo Anticancer Drug Screen. Data for tumor model L1210 Leukemia (intraperitoneal) in CD2F1 (CDF1) mice
Conditions: higher = longer survival
Summary of the method: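 Each value reflects a quotient of treated over vehicle control outcomes in mice with a transplanted tumor.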

[1] = endpoint: mean survival time, dose: 100.0 mg/kg/injection, schedule: Q04DX002 (ip), vehicle: saline with Tween-80
[2] = endpoint: mean survival time, dose: 200.0 mg/kg/injection, schedule: Q04DX002 (ip), vehicle: saline with Tween-80
[3] = endpoint: mean survival time, dose: 400.0 mg/kg/injection, schedule: Q04DX002 (ip), vehicle: saline with Tween-80
[4] = endpoint: mean survival time, dose: 100.0 mg/kg/injection, schedule: Q01DX001 (ip), vehicle: saline
[5] = endpoint: mean survival time, dose: 200.0 mg/kg/injection, schedule: Q01DX001 (ip), vehicle: saline
[6] = endpoint: mean survival time, dose: 400.0 mg/kg/injection, schedule: Q01DX001 (ip), vehicle: saline
[7] = endpoint: mean survival time, dose: 100.0 mg/kg/injection, schedule: Q04DX003 (ip), vehicle: saline with Tween-80
[8] = endpoint: mean survival time, dose: 200.0 mg/kg/injection, schedule: Q04DX003 (ip), vehicle: saline with Tween-80
[9] = endpoint: mean survival time, dose: 400.0 mg/kg/injection, schedule: Q04DX003 (ip), vehicle: saline with Tween-80
[10] = endpoint: mean survival time, dose: 100.0 mg/kg/injection, schedule: Q01DX009 (ip), vehicle: saline with Tween-80
[11] = endpoint: mean survival time, dose: 200.0 mg/kg/injection, schedule: Q01DX009 (ip), vehicle: saline with Tween-80
[12] = endpoint: mean survival time, dose: 400.0 mg/kg/injection, schedule: Q01DX009 (ip), vehicle: saline with Tween-80
[13] = endpoint: mean survival time, dose: 50.0 mg/kg/injection, schedule: Q01DX009 (ip), vehicle: saline with Tween-80
[14] = endpoint: mean survival time, dose: 12.5 mg/kg/injection, schedule: Q01DX009 (ip), vehicle: saline with Tween-80
[15] = endpoint: mean survival time, dose: 25.0 mg/kg/injection, schedule: Q01DX009 (ip), vehicle: saline with Tween-80
[16] = endpoint: mean survival time, dose: 50.0 mg/kg/injection, schedule: Q04DX002 (ip), vehicle: saline with Tween-80

Measured: T/C

CCOC(=O)C1CC(=O)C2/C(=C(\O)c3ccccc3)C=C([N+](=O)[O-])C1C2[N+](=O)[O-] (stereo unspecified)
inactive: [1] 94 % of control | [2] 94 % of control | [3] 96 % of control

O=C(O)CCC(=O)c1cccc(O)c1
inactive: [4] 103 % of control | [5] 104 % of control | [6] 103 % of control

COc1ccc(COc2ccc(Cl)cc2)cc1
inactive: endpoint: mean survival time, dose: 75.0 mg/kg/injection, schedule: Q04DX002 (ip), vehicle: saline with Tween-80 87 % of control | endpoint: mean survival time, dose: 150.0 mg/kg/injection, schedule: Q04DX002 (ip), vehicle: saline with Tween-80 98 % of control | endpoint: mean survival time, dose: 300.0 mg/kg/injection, schedule: Q04DX002 (ip), vehicle: saline with Tween-80 106 % of control

CC(C)C(=O)Nc1cccc(Cl)c1
inactive: [7] 97 % of control | [8] 97 % of control | [9] 94 % of control

COc1cc2cc3c(c(O)c2c(O)c1/C=C/C(C)C)C(=O)CC(C)(OC(C)=O)C3 (stereo unspecified)
inactive: endpoint: median survival time, dose: 1.25 mg/kg/injection, schedule: Q01DX009 (ip), vehicle: Klucel (hydroxypropylcellulose) (HPC) 105 % of control | endpoint: median survival time, dose: 2.5 mg/kg/injection, schedule: Q01DX009 (ip), vehicle: Klucel (hydroxypropylcellulose) (HPC) 102 % of control | endpoint: median survival time, dose: 5.0 mg/kg/injection, schedule: Q01DX009 (ip), vehicle: Klucel (hydroxypropylcellulose) (HPC) 113 % of control | endpoint: median survival time, dose: 10.0 mg/kg/injection, schedule: Q01DX009 (ip), vehicle: Klucel (hydroxypropylcellulose) (HPC) 116 % of control and 121 % of control | endpoint: median survival time, dose: 20.0 mg/kg/injection, schedule: Q01DX009 (ip), vehicle: Klucel (hydroxypropylcellulose) (HPC) 98 % of control and 105 % of control

C1=CC=CN(c2ccccc2)C=C1
inactive: endpoint: mean survival time, dose: 100.0 mg/kg/injection, schedule: Q04DX003 (ip), vehicle: other 106 % of control | endpoint: mean survival time, dose: 200.0 mg/kg/injection, schedule: Q04DX003 (ip), vehicle: other 95 % of control | endpoint: mean survival time, dose: 400.0 mg/kg/injection, schedule: Q04DX003 (ip), vehicle: other 97 % of control

NS(=O)(=O)Cc1ccccc1
inactive: endpoint: mean survival time, dose: 25.0 mg/kg/injection, schedule: Q04DX003 (ip), vehicle: saline 107 % of control | endpoint: mean survival time, dose: 50.0 mg/kg/injection, schedule: Q04DX003 (ip), vehicle: saline 117 % of control | endpoint: mean survival time, dose: 100.0 mg/kg/injection, schedule: Q04DX003 (ip), vehicle: saline 90 % of control and 92 % of control

Clc1ccc(C(c2ccccc2Cl)C(Cl)Cl)cc1 (stereo unspecified)
inactive: endpoint: mean survival time, dose: 62.5 mg/kg/injection, schedule: Q01DX009 (sc), vehicle: steriod suspending solution 95 % of control and 106 % of control | endpoint: mean survival time, dose: 125.0 mg/kg/injection, schedule: Q01DX009 (sc), vehicle: steriod suspending solution 98 % of control and 102 % of control | endpoint: mean survival time, dose: 250.0 mg/kg/injection, schedule: Q01DX009 (sc), vehicle: steriod suspending solution 95 % of control and 105 % of control | endpoint: mean survival time, dose: 500.0 mg/kg/injection, schedule: Q01DX009 (sc), vehicle: steriod suspending solution 101 % of control and 106 % of control

CCN(CC)P(=O)(NCCCl)OC (stereo unspecified)
inactive: endpoint: mean survival time, dose: 100.0 mg/kg/injection, schedule: Q01DX009 (ip), vehicle: DMSO 103 % of control

O=C(c1ccccc1)C(Br)C(Br)c1ccccc1 (stereo unspecified)
inactive: [10] 93 % of control | [7] 94 % of control | endpoint: mean survival time, dose: 200.0 mg/kg/injection, schedule: Q01DX001 (ip), vehicle: saline with Tween-80 91 % of control | [11] 106 % of control | [8] 90 % of control | endpoint: mean survival time, dose: 400.0 mg/kg/injection, schedule: Q01DX001 (ip), vehicle: saline with Tween-80 94 % of control | [12] 95 % of control | [9] 92 % of control

CCOC(=O)C(NCc1ccccc1)C(=O)OCC
inactive: endpoint: mean survival time, dose: 12.5 mg/kg/injection, schedule: Q01DX009 (ip), vehicle: water 96 % of control | endpoint: mean survival time, dose: 25.0 mg/kg/injection, schedule: Q01DX009 (ip), vehicle: water 98 % of control | endpoint: mean survival time, dose: 50.0 mg/kg/injection, schedule: Q01DX009 (ip), vehicle: water 101 % of control | endpoint: mean survival time, dose: 100.0 mg/kg/injection, schedule: Q01DX009 (ip), vehicle: water 93 % of control

O=[N+]([O-])c1ccc(/C=C/c2ccc([N+](=O)[O-])cc2S(=O)(=O)O)c(S(=O)(=O)O)c1
inactive: [10] 102 % of control | [11] 105 % of control | [12] 94 % of control

S=C(Nc1ccccc1)NC1CCCCC1
inactive: [7] 100 % of control | [8] 102 % of control | [9] 97 % of control

O=C(O)c1cccc(N=Nc2ccc(N(CCCl)CCCl)cc2)c1
inactive: endpoint: mean survival time, dose: 10.0 mg/kg/injection, schedule: Q01DX009 (ip), vehicle: Klucel (hydroxypropylcellulose) (HPC) 121 % of control | endpoint: mean survival time, dose: 20.0 mg/kg/injection, schedule: Q01DX009 (ip), vehicle: Klucel (hydroxypropylcellulose) (HPC) 97 % of control | endpoint: mean survival time, dose: 40.0 mg/kg/injection, schedule: Q01DX009 (ip), vehicle: Klucel (hydroxypropylcellulose) (HPC) 89 % of control

COc1cc2cccc(OC)c(=O)c2c(O)c1OC
inactive: [4] 98 % of control | [5] 101 % of control | [6] 101 % of control

COc1cc(OC)c(NC(=O)OCCOc2ccc(Br)cc2)cc1Cl
inactive: [13] 90 % of control | [10] 90 % of control | [11] 97 % of control

Cc1ccc([N+](=O)[O-])cc1NC(=O)Nc1c(C)n(C)n(-c2ccccc2)c1=O
inactive: endpoint: mean survival time, dose: 50.0 mg/kg/injection, schedule: Q01DX009 (ip), vehicle: Klucel (hydroxypropylcellulose) (HPC) 93 % of control | endpoint: mean survival time, dose: 100.0 mg/kg/injection, schedule: Q01DX009 (ip), vehicle: Klucel (hydroxypropylcellulose) (HPC) 89 % of control | endpoint: mean survival time, dose: 200.0 mg/kg/injection, schedule: Q01DX009 (ip), vehicle: Klucel (hydroxypropylcellulose) (HPC) 93 % of control

CN(C)CCC(=O)c1ccccc1
inactive: endpoint: mean survival time, dose: 25.0 mg/kg/injection, schedule: Q01DX009 (ip), vehicle: saline 106 % of control | endpoint: mean survival time, dose: 50.0 mg/kg/injection, schedule: Q01DX009 (ip), vehicle: saline 95 % of control | endpoint: mean survival time, dose: 100.0 mg/kg/injection, schedule: Q01DX009 (ip), vehicle: saline 106 % of control

C=CCNC(=S)N/N=C\c1cc(OC)c(OC)c(OC)c1
inactive: [10] 93 % of control | [11] 97 % of control | [12] 106 % of control

O=[N+]([O-])c1ccc(O)c(Cl)c1
inactive: [14] 86 % of control | [15] 89 % of control | [13] 106 % of control and 108 % of control

O=c1[nH]c(=O)n(C2CC(O)C(CO)O2)cc1S (stereo unspecified)
inactive: endpoint: mean survival time, dose: 12.5 mg/kg/injection, schedule: Q01DX005 (ip), vehicle: water 107 % of control | endpoint: mean survival time, dose: 25.0 mg/kg/injection, schedule: Q01DX005 (ip), vehicle: water 117 % of control | endpoint: mean survival time, dose: 50.0 mg/kg/injection, schedule: Q01DX005 (ip), vehicle: water 112 % of control | endpoint: mean survival time, dose: 100.0 mg/kg/injection, schedule: Q01DX005 (ip), vehicle: water 122 % of control | endpoint: mean survival time, dose: 133.0 mg/kg/injection, schedule: Q01DX005 (ip), vehicle: water 121 % of control | endpoint: mean survival time, dose: 200.0 mg/kg/injection, schedule: Q01DX005 (ip), vehicle: water 111 % of control | endpoint: mean survival time, dose: 300.0 mg/kg/injection, schedule: Q01DX005 (ip), vehicle: water 115 % of control

CC(CC(C)C(=O)O)C(=O)O (stereo unspecified)
inactive: [10] 100 % of control | [11] 105 % of control

COc1ccc(NC(=O)Nc2ccc(F)cc2)cc1
inactive: [7] 101 % of control | [8] 96 % of control | [9] 102 % of control

N#CC(c1c[nH]c2ccccc12)N1CCOCC1 (stereo unspecified)
inactive: endpoint: mean survival time, dose: 25.0 mg/kg/injection, schedule: Q04DX002 (ip), vehicle: saline with Tween-80 105 % of control | [16] 100 % of control

O=C(O)c1cc(-c2ccc(Cl)cc2)nc2c(Cl)cc(Cl)cc12
inactive: [4] 101 % of control | [5] 97 % of control | [6] 100 % of control

CCOCCN=C(N)C(N)=NCCOCC
inactive: [16] 102 % of control | [1] 98 % of control | [2] 94 % of control | [3] 94 % of control

Cc1ccccc1N=C=S
inactive: [14] 98 % of control | [15] 96 % of control | [13] 106 % of control
